Source: patent US20120273764A1, “COMPOSITION FOR ORGANIC PHOTOELECTRIC DEVICE, ORGANIC PHOTOELECTRIC DEVICE USING THE SAME, AND DISPLAY DEVICE INCLUDING THE SAME” (CHEIL INDUSTRIES, INC., priority 2009, published 2012)

Test: Solubility evaluation in organic solvent
Type: physicochemical
Details: for Solubility Chlorobenzene / Solubility Toluene: 30 mg compound made up to 1.0 g solution, rolled at room temperature for 1 hour, 0.2 μm syringe filter
Description: An organic solvent was added to 30 mg of each compound, and mixed until the total weight of each solution became 1.0 g. The mixture was rolled at room temperature for 1 hour, and then filtered with a syringe filter (Acrodisc Company) whose average pore diameter was 0.2 μm. Herein, solubility and film-forming properties were compared based on CBP, which is a generally-used host compound.
(1) Solubility Evaluation Method: solubility was determined by removing the filtered solution of the solvent and measuring the mass of the remaining solid, and the result is shown in the following Table 1. […]

Structure (SMILES)	Solubility Chlorobenzene (chlorobenzene)	Solubility Toluene (toluene)	Solubility in chlorobenzene (in words) (chlorobenzene)	Solubility in toluene (in words) (toluene)
c1ccc(-c2nnc(-c3ccc(-c4ccc5c(c4)C4(c6ccccc6-c6ccccc64)c4ccccc4-5)cc3)o2)cc1 [Chem. Form. 43]	equal to 3 wt %	equal to 3 wt %	–	–
c1ccc2c(c1)c1ccccc1n2-c1ccc(-c2ccc(-n3c4ccccc4c4ccccc43)cc2)cc1 [CBP, 4,4-N,N-dicarbazolebiphenyl, reference compound]	1 wt %	equal to 0.5 wt %	part of the CBP was dissolved	little CBP was dissolved
c1ccc(-n2c3ccccc3c3ccc4c5ccccc5n(-c5ccccc5)c4c32)cc1 [Chem. Form. 38]	equal to 3 wt %	equal to 3 wt %	–	–
c1cncc(-c2nnc(-c3cc(-c4ccc5c(c4)C4(c6ccccc6-c6ccccc64)c4ccccc4-5)cc(-c4ccc5c(c4)C4(c6ccccc6-c6ccccc64)c4ccccc4-5)c3)o2)c1 [Chem. Form. 44]	equal to 3 wt %	equal to 3 wt %	–	–
c1ccc(-n2c3ccccc3c3c4c5ccccc5n(-c5ccccc5)c4ccc32)cc1 [Chem. Form. 20]	equal to 3 wt %	equal to 3 wt %	–	–
